Assay results taken from BindingDB's records for doi:10.1021/acs.jmedchem.7b00089 (International Centre For Genetic Engineering and …, 2017).

Biological target: T1, Heme ligase (Plasmodium falciparum (isolate 3D7), UniProt Q8IL04)
T1 sequence (Q8IL04 whole entry): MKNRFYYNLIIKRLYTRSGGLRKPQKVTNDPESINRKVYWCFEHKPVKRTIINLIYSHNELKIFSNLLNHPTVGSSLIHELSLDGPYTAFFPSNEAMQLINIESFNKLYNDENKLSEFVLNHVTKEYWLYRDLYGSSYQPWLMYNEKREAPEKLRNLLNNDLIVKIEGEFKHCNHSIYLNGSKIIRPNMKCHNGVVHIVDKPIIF
Experiment: ChEBML_1681013
Text: Binding affinity to Plasmodium falciparum 3D7 HDP assessed as equilibrium dissociation constant by SPR assay

- Kd: 2960 nM
Structure (SMILES): FC(F)(F)c1cccc(N2CCN(C3=Cc4ccccc4CC3)CC2)c1
